{
  "source": "patent US20240108623A1",
  "about": "“METHODS OF TREATING CANCER WITH POZIOTINIB” (BOARD OF REGENTS, THE UNIVERSITY OF TEXAS SYSTEM, priority 2021, published 2024)",
  "assay_in_all_cases": "Ba/F3 cell drug screening, Cell Titer Glo",
  "format_in_all_cases": "cell-based",
  "key": {"EGFR L858R/T790M/C797S": {"molecular_target": "T1, EGFR L858R/T790M/C797S (Homo sapiens, UniProt P00533, C797S/L858R/T790M)", "T1 construct": "expressed in transfected cells; host or cells: Ba/F3 (retroviral transduction, pBabe-Puro based vectors)", "settings": "Ba/F3 cells expressing EGFR L858R/T790M/C797S; 72 hours", "description": "(§1) Ba/F3 cell generation, drug screening, and IC50 approximations. Ba/F3 cells were obtained as a gift from Dr. Gordon Mills (MD Anderson Cancer Center), and maintained in RPMI (Sigma) containing 10% FBS, 1% penicillin/streptomycin, and 10 ng/ml recombinant mIL-3 (R&D Biosystems). To establish stable Ba/F3 cell lines, Ba/F3 cells were transduced with retroviruses containing mutant EGFR plasmids for 12-24 hours. Retroviruses were generated using Lipofectamine 2000 (Invitrogen) transfections of Phoenix 293T-ampho cells (Orbigen) with pBabe-Puro based vectors listed below in Table 6. Vectors were generated by GeneScript or Bioinnovatise using parental vectors from Addgene listed below in Table 6.\n(§2) After 48-72 hours of transduction, 2 μg/ml puromycin (Invitrogen) was added to Ba/F3 cell lines in complete RPMI. To select for EGFR positive cell lines, cells were stained with PE-EGFR (Biolegend) and sorted by FACS. After sorting, EGFR positive cells were maintained in RPMI containing 10% FBS, 1% penicillin/streptomycin, and 1 ng/ml EGF to support cell viability. Drug screening was performed as previously described^41,42. Shortly, cells were plated in 384-well plates (Greiner Bio-One) at 2000-3000 cells per well in technical triplicate. Seven different concentrations of TKIs or DMSO vehicle were added to reach a final volume of 40 μL per well. After 72 hours, 11p L of Cell Titer Glo (Promega) was added to each well. Plates were incubated for a minimum of 10 minutes, and bioluminescence was determined using a FLUOstar OPTIMA plate reader (BMG LABTECH). Raw bioluminescence values were normalized to DMSO control treated cells, and values were plotted in GraphPad Prism. Non-linear regressions were used to fit the normalized data with a variable slope, and IC50 values were determined by GraphPad prism by interpolation of concentrations at 50% inhibition. Drug screens were performed in technical triplicate on each plate and either duplicate or triplicate biological replicates. Mutant to WT ratios (Mut/WT) for each drug were calculated by dividing the IC50 values of mutant cell lines by the average IC50 value of Ba/F3 cells expressing WT EGFR supplemented with 10 ng/ml EGF for each drug. Statistical differences between groups were determined by ANOVA as described in the figure legends."}, "EGFR L861R": {"molecular_target": "T2, EGFR L861R (Homo sapiens, UniProt P00533, L861R)", "T2 construct": "expressed in transfected cells; host or cells: Ba/F3 (retroviral, pBabe-Puro based vector; created by GeneScript from EGFR WT)", "settings": "Ba/F3 cells expressing EGFR L861R; 72 hours", "description": "as §1, §2"}, "EGFR Ex19del L718Q": {"molecular_target": "T3, EGFR Ex19del L718Q (Homo sapiens, UniProt P00533, DEL746-750/L718Q)", "T3 construct": "expressed in transfected cells; host or cells: Ba/F3 (murine pro-B cells), retroviral transduction with pBabe-Puro based vectors", "settings": "Ba/F3 cells expressing EGFR Ex19del L718Q; 72 hours", "description": "as §1, §2"}, "EGFR T790M": {"molecular_target": "T4, EGFR T790M (Homo sapiens, UniProt P00533, T790M)", "T4 construct": "expressed in transfected cells; host or cells: Ba/F3 (retroviral transduction, pBabe-Puro based vectors)", "settings": "Ba/F3 cells expressing EGFR T790M; 72 hours", "description": "as §1, §2"}, "EGFR L747S": {"molecular_target": "T5, EGFR L747S (Homo sapiens, UniProt P00533, L747S)", "T5 construct": "expressed in transfected cells; host or cells: Ba/F3 (retroviral transduction, pBabe-Puro based vectors)", "settings": "Ba/F3 cells expressing EGFR L747S; 72 hours", "description": "as §1, §2"}, "EGFR D770insNPG": {"molecular_target": "T6, EGFR D770insNPG (Homo sapiens, UniProt P00533, INS770NPG)", "T6 construct": "expressed in transfected cells; host or cells: Ba/F3 (retroviral, pBabe-Puro based vector)", "settings": "Ba/F3 cells expressing EGFR D770insNPG; 72 hours", "description": "as §1, §2"}, "EGFR H773insNPH": {"molecular_target": "T7, EGFR H773insNPH (Homo sapiens, UniProt P00533, INS773NPH)", "T7 construct": "expressed in transfected cells; host or cells: Ba/F3 (retroviral, pBabe-Puro based vector)", "settings": "Ba/F3 cells expressing EGFR H773insNPH; 72 hours", "description": "as §1, §2"}, "EGFR G724S": {"molecular_target": "T8, EGFR G724S (Homo sapiens, UniProt P00533, G724S)", "T8 construct": "expressed in transfected cells; host or cells: Ba/F3 (retroviral transduction, pBabe-Puro based vectors)", "settings": "Ba/F3 cells expressing EGFR G724S; 72 hours", "description": "as §1, §2"}, "EGFR G719S T790M": {"molecular_target": "T9, EGFR G719S T790M (Homo sapiens, UniProt P00533, G719S/T790M)", "T9 construct": "expressed in transfected cells; host or cells: Ba/F3 (retroviral transduction, pBabe-Puro based vectors)", "settings": "Ba/F3 cells expressing EGFR G719S T790M; 72 hours", "description": "as §1, §2"}, "EGFR V769L": {"molecular_target": "T10, EGFR V769L (Homo sapiens, UniProt P00533, V769L)", "T10 construct": "expressed in transfected cells; host or cells: Ba/F3 (retroviral transduction, pBabe-Puro based vectors)", "settings": "Ba/F3 cells expressing EGFR V769L; 72 hours", "description": "as §1, §2"}, "EGFR E709K G719S": {"molecular_target": "T11, EGFR E709K G719S (Homo sapiens, UniProt P00533, E709K/G719S)", "T11 construct": "expressed in transfected cells; host or cells: Ba/F3 (retroviral transduction, pBabe-Puro based vectors)", "settings": "Ba/F3 cells expressing EGFR E709K G719S; 72 hours", "description": "as §1, §2"}, "EGFR L833F": {"molecular_target": "T12, EGFR L833F (Homo sapiens, UniProt P00533, L833F)", "T12 construct": "expressed in transfected cells; host or cells: Ba/F3 (retroviral, pBabe-Puro based vector)", "settings": "Ba/F3 cells expressing EGFR L833F; 72 hours", "description": "as §1, §2"}, "[1]": {"molecular_target": "T13, EGFR L747_K754del insATSPE (Homo sapiens, UniProt P00533, DEL747-749/K754E)", "T13 construct": "expressed in transfected cells; host or cells: Ba/F3 (retroviral, pBabe-Puro based vector)", "settings": "Ba/F3 cells expressing EGFR L747_K754del insATSPE; 72 hours", "description": "as §1, §2"}, "EGFR L858R/T790M": {"molecular_target": "T14, EGFR L858R/T790M (Homo sapiens, UniProt P00533, L858R/T790M)", "T14 construct": "expressed in transfected cells; host or cells: Ba/F3 (retroviral transduction, pBabe-Puro based vectors)", "settings": "Ba/F3 cells expressing EGFR L858R/T790M; 72 hours", "description": "as §1, §2"}, "EGFR S768I V774M": {"molecular_target": "T15, EGFR S768I V774M (Homo sapiens, UniProt P00533, S768I/V774M)", "T15 construct": "host or cells: Ba/F3 (retroviral transduction, pBabe-Puro based vectors)", "settings": "Ba/F3 cells expressing EGFR S768I V774M; 72 hours", "description": "as §1, §2"}, "EGFR G719A L861Q": {"molecular_target": "T16, EGFR G719A L861Q (Homo sapiens, UniProt P00533, G719A/L861Q)", "T16 construct": "expressed in transfected cells; host or cells: Ba/F3 (retroviral transduction, pBabe-Puro based vectors)", "settings": "Ba/F3 cells expressing EGFR G719A L861Q; 72 hours", "description": "as §1, §2"}},
  "data": [
    {"smiles": "C=CC(=O)N1CCC(Oc2cc3c(Nc4ccc(Cl)c(Cl)c4F)ncnc3cc2OC)CC1", "note": "[Poziotinib]", "values": [
      {"measurement": "Response of Cells Comprising T790M-like-R EGFR Mutations to Second-Generation TKIs", "setting": "EGFR L858R/T790M/C797S", "result": 935.3},
      {"measurement": "Response of Cells Comprising Classical-Like EGFR Mutations to Second-Generation TKIs", "setting": "EGFR L861R", "result": 0.01648},
      {"measurement": "Response of Cells Comprising PACC EGFR Mutations to Second-Generation TKIs", "setting": "EGFR Ex19del L718Q", "result": 0.107},
      {"measurement": "Response of Cells Comprising T790M-like-S EGFR Mutations to Second-Generation TKIs", "setting": "EGFR T790M", "result": 4.671},
      {"measurement": "Response of Cells Comprising PACC EGFR Mutations to Second-Generation TKIs", "setting": "EGFR L747S", "result": 0.01641},
      {"measurement": "Response of Cells Comprising Ex20ins EGFR Mutations to Poziotinib", "setting": "EGFR D770insNPG", "result": 0.2889},
      {"measurement": "Response of Cells Comprising Ex20ins EGFR Mutations to Poziotinib", "setting": "EGFR H773insNPH", "result": 0.3855},
      {"measurement": "Response of Cells Comprising PACC EGFR Mutations to Second-Generation TKIs", "setting": "EGFR G724S", "result": 0.2246},
      {"measurement": "Response of Cells Comprising T790M-like-S EGFR Mutations to Second-Generation TKIs", "setting": "EGFR G719S T790M", "result": 0.3262},
      {"measurement": "Response of Cells Comprising PACC EGFR Mutations to Second-Generation TKIs", "setting": "EGFR V769L", "result": 0.05673},
      {"measurement": "Response of Cells Comprising PACC EGFR Mutations to Second-Generation TKIs", "setting": "EGFR E709K G719S", "result": 0.01609},
      {"measurement": "Response of Cells Comprising Classical-Like EGFR Mutations to Second-Generation TKIs", "setting": "EGFR L833F", "result": 0.01839},
      {"measurement": "Response of Cells Comprising T790M-like-S EGFR Mutations to Second-Generation TKIs", "setting": "[1]", "result": 0.8493},
      {"measurement": "Response of Cells Comprising T790M-like-S EGFR Mutations to Second-Generation TKIs", "setting": "EGFR L858R/T790M", "result": 2.414},
      {"measurement": "Response of Cells Comprising PACC EGFR Mutations to Second-Generation TKIs", "setting": "EGFR S768I V774M", "result": 0.1181},
      {"measurement": "Response of Cells Comprising PACC EGFR Mutations to Second-Generation TKIs", "setting": "EGFR G719A L861Q", "result": 0.09492}
    ]}
  ]
}
